# Laboratory results reported in patent publication US9855268B2, “Triazolo[4,5-d]pyrimidine derivatives” (Merck Patent GmbH, priority 2013, dated 2018).
# Experiments:
# GCN2 = GCN2 (Homo sapiens, UniProt Q9P2K8); assay: GCN2 enzyme assay (TR-FRET Lanthascreen, GFP-eIF2alpha phosphorylation); type: biochemical; conditions: 10 μM ATP, 80 nM GFP-eIF2a, 30 nM GCN2
# In short: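 Phosphorylation of GFP-eIF2alpha (80 nM) by GCN2 run at room temperature with 10 μM ATP. After EDTA quench, product quantified by Lanthascreen TR-FRET (antibody–GFP complex, 340 nm excitation).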
# GSK3α(h) = GSK3α(h) (Homo sapiens, UniProt P49840); assay: GSK3α radiometric kinase assay (33P-ATP, phospho GS2 peptide); type: biochemical; conditions: read-out: IC50 GSK3α (enzyme assay)
# Procedure: GSK3α(h) is incubated with 8 mM MOPS pH 7,0, 0,2 mM EDTA, 20 μM
# […](p)EDEEE (phosphor GS2 peptide), 10 mM Mg-acetate and [gamma-33P-ATP](specific activity approx. 500 cpm/Pmol, concentration as required). The reaction is initiated by the addition of the MgATP. After incubation for 40 minutes at the room temperature, the Reaction is stopped by the addition of 3% phosphoric acid solution. 10 μL of reaction is then spotted onto a P30 filtermat and washed three times for 5 minutes in 50 mM phosphoric acid and once in methanol prior to drying and scintillation counting.
# Chain of GSK3α(h) (P49840 whole entry): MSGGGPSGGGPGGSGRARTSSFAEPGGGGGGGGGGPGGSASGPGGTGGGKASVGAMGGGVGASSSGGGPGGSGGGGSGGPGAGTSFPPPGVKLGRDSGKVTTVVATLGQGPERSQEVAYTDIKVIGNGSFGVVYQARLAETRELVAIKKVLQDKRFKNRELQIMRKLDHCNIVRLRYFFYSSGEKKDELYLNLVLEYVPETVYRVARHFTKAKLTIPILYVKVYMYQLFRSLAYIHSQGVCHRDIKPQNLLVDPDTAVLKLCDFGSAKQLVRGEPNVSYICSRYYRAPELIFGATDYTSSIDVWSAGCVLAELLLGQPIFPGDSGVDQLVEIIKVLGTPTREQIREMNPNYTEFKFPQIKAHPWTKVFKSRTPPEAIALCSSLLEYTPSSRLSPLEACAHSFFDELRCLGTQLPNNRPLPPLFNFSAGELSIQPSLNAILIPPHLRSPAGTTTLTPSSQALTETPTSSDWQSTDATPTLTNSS
# Chain of GCN2 (Q9P2K8 whole entry, species assumed): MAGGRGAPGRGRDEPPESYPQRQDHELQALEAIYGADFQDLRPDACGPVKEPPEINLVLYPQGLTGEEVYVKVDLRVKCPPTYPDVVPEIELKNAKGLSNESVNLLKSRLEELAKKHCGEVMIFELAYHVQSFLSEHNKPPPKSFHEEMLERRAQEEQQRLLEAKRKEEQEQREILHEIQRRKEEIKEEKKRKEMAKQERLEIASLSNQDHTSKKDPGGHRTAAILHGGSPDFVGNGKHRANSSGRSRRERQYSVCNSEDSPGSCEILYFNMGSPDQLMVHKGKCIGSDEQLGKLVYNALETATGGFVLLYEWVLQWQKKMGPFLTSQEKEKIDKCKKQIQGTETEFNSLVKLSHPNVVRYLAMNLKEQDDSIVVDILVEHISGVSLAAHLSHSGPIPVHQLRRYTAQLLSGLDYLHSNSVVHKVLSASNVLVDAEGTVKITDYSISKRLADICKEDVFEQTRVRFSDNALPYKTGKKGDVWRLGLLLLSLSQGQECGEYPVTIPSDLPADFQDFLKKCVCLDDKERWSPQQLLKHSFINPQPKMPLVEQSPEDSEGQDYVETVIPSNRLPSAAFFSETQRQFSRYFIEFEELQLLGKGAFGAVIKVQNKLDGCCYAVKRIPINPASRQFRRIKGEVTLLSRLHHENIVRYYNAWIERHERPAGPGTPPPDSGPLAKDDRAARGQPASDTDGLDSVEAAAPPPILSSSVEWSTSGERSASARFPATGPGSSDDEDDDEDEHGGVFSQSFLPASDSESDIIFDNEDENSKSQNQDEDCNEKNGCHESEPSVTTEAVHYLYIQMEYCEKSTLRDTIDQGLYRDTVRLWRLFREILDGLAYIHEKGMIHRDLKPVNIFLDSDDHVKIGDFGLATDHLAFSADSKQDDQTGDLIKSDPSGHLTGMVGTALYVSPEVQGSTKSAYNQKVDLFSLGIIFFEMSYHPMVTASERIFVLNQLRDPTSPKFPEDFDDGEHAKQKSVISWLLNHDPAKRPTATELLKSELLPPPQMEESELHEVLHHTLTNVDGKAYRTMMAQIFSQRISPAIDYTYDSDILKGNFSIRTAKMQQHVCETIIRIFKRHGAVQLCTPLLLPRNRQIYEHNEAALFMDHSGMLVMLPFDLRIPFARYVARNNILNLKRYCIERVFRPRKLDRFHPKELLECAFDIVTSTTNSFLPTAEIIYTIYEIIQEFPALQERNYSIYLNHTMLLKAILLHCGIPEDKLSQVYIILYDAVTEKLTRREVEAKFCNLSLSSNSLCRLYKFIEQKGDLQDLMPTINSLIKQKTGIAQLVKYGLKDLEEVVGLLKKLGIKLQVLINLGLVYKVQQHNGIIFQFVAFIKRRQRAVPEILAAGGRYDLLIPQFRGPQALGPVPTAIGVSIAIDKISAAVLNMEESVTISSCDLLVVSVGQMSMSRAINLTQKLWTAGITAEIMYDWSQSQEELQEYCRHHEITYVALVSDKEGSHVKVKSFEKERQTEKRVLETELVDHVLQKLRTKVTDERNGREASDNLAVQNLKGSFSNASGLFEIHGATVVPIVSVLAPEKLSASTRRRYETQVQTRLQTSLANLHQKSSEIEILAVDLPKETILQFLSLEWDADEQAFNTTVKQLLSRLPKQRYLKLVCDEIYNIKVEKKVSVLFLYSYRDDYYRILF
SMILES,IC50 (GCN2) [nM],IC50 (GSK3α(h)) [nM]
"O[C@@H]1CC[C@@H](Nc2ncc3nnn(-c4ccc(N5CCCC5)cc4)c3n2)C1 (relative stereo) [A198, (trans)-3-[3-(4-pyrrolidin-1-yl-phenyl)-3H-[1,2,3]triazolo[4,5-d]pyrimidin-5-ylamino]-cyclopentanol]",< 1000,< 1000
Cc1nc2ccc(-n3nnc4cnc(N[C@@H]5CC[C@@H](O)C5)nc43)cc2o1 (relative stereo) [A199],< 1000,< 1000
"O[C@@H]1CC[C@@H](Nc2ncc3nnn(-c4ccc5nsnc5c4)c3n2)C1 (relative stereo) [A200, (trans)-3-(3-benzo[1,2,5]thiadiazol-5-yl-3H-[1,2,3]triazolo[4,5-d]pyrimidin-5-ylamino)-cyclopentanol]",< 1000,< 1000
"COc1ccc(-n2nnc3cnc(N[C@H]4CC[C@@H](S(C)(=O)=O)C4)nc32)cc1 (relative stereo) [A264, ((cis)-3-methanesulfonyl-cyclopentyl)-[3-(4-methoxy-phenyl)-3H-[1,2,3]triazolo[4,5-d]pyrimidin-5-yl]-amine]",< 1000,< 1000
"O[C@@H]1CC[C@@H](Nc2ncc3nnn(-c4ccc(-c5cnn(CCc6nnn[nH]6)c5)cc4)c3n2)C1 (relative stereo) [A266, trans-3-[3-(4-{1-[2-(1H-Tetrazol-5-yl)-ethyl]-1H-pyrazol-4-yl}-phenyl)-3H-[1,2,3]triazolo[4,5-d]pyrimidin-5-ylamino]-cyclopentanol]",< 1000,< 1000
"COc1ccc(-n2nnc3cnc(N[C@H]4CC[C@H](CO)C4)nc32)cc1 [A111, {(1S,3S)-3-[3-(4-methoxy-phenyl)-3H-[1,2,3]triazolo[4,5-d]pyrimidin-5-ylamino]-cyclopentyl}-methanol]",< 1000,< 1000
"COc1ccc(-n2nnc3cnc(N[C@@H]4CCN(C(=O)CCN5CCN(C)CC5)C4)nc32)cc1 [A132, 1-{(R)-3-[3-(4-methoxy-phenyl)-3H-[1,2,3]triazolo[4,5-d]pyrimidin-5-ylamino]-pyrrolidin-1-yl}-3-(4-methyl-piperazin-1-yl)-propan-1-one]",< 1000,< 1000
"NC(=O)[C@H]1CC[C@@H](Nc2ncc3nnn(-c4ccc(N5CCCC5)cc4)c3n2)C1 [A138, (1S,3R)-3-[3-(4-pyrrolidin-1-yl-phenyl)-3H-[1,2,3]triazolo[4,5-d]pyrimidin-5-ylamino]-cyclopentanecarboxylic acid amide]",< 1000,< 1000
"COc1ccc(-n2nnc3cnc(N[C@@H]4CC[C@@H](C(=O)O)C4)nc32)cc1 [A139, (1R,3R)-3-[3-(4-methoxy-phenyl)-3H-[1,2,3]triazolo[4,5-d]pyrimidin-5-ylamino]-cyclopentanecarboxylic acid]",< 1000,
"COc1ccc(-n2nnc3cnc(NCCCC(N)=O)nc32)cc1 [A142, 4-[3-(4-methoxy-phenyl)-3H-[1,2,3]triazolo[4,5-d]pyrimidin-5-ylamino]-butyramide]",< 1000,< 1000
"COc1ccc(-n2nnc3cnc(N[C@H]4CC[C@H](C(N)=O)CC4)nc32)cc1 [A143, 4-[3-(4-methoxy-phenyl)-3H-[1,2,3]triazolo[4,5-d]pyrimidin-5-ylamino]-cyclohexanecarboxylic acid amide]",< 1000,< 1000
"COc1ccc(-n2nnc3cnc(NC(C)CC(N)=O)nc32)cc1 (stereo not drawn) [A144, 3-[3-(4-methoxy-phenyl)-3H-[1,2,3]triazolo[4,5-d]pyrimidin-5-ylamino]-butyramide]",< 1000,< 1000
"CCOc1ccc(-n2nnc3cnc(N[C@@H]4CC[C@H](C(N)=O)C4)nc32)cc1 [A149, (1S,3R)-3-[3-(4-ethoxy-phenyl)-3H-[1,2,3]triazolo[4,5-d]pyrimidin-5-ylamino]-cyclopentanecarboxylic acid amide]",< 1000,
"NC(=O)[C@@H]1CC[C@@H](Nc2ncc3nnn(-c4ccc(N5CCOCC5=O)c(F)c4)c3n2)C1 [A154, (1R,3R)-3-{3-[3-fluoro-4-(3-oxo-morpholin-4-yl)-phenyl]-3H-[1,2,3]triazolo[4,5-d]pyrimidin-5-ylamino}-cyclopentanecarboxylic acid amide]",< 1000,
"COc1c(F)cc(-n2nnc3cnc(N[C@@H]4CC[C@@H](C(N)=O)C4)nc32)cc1F [A163, (1R,3R)-3-[3-(3,5-difluoro-4-methoxy-phenyl)-3H-[1,2,3]triazolo[4,5-d]pyrimidin-5-ylamino]-cyclopentanecarboxylic acid amide]",< 1000,
"COCCOc1ccc(-n2nnc3cnc(N[C@@H]4CC[C@H](C(N)=O)C4)nc32)cc1 [A166, (1S,3R)-3-{3-[4-(2-methoxy-ethoxy)-phenyl]-3H-[1,2,3]triazolo[4,5-d]pyrimidin-5-ylamino}-cyclopentanecarboxylic acid amide]",< 1000,

SMILES,IC50 (GCN2) [nM],IC50 (GSK3α(h)) [nM]
"NC(=O)[C@H]1CC[C@@H](Nc2ncc3nnn(-c4ccc(I)cc4)c3n2)C1 [A171, (1S,3R)-3-[3-(4-iodo-phenyl)-3H-[1,2,3]triazolo[4,5-d]pyrimidin-5-ylamino]-cyclopentanecarboxylic acid amide]",< 1000,
"NC(=O)[C@H]1CC[C@@H](Nc2ncc3nnn(-c4ccc5nsnc5c4)c3n2)C1 [A172, (1S,3R)-3-(3-benzo[1,2,5]thiadiazol-5-yl-3H-[1,2,3]triazolo[4,5-d]pyrimidin-5-ylamino)-cyclopentanecarboxylic acid amide]",< 1000,< 1000
"COc1ccc(-n2nnc3cnc(N[C@@H]4CC[C@@H](C(N)=O)C4)nc32)cn1 [A173, (1R,3R)-3-[3-(6-methoxy-pyridin-3-yl)-3H-[1,2,3]triazolo[4,5-d]pyrimidin-5-ylamino]-cyclopentanecarboxylic acid amide]",< 1000,< 1000
"O=C(O)[C@H]1CC[C@@H](Nc2ncc3nnn(-c4ccc5ncccc5c4)c3n2)C1 [A188, (1S,3R)-3-(3-quinolin-6-yl-3H-[1,2,3]triazolo[4,5-d]pyrimidin-5-ylamino)-cyclopentanecarboxylic acid]",< 1000,
"COc1ccc(-n2nnc3cnc(N[C@@H]4CCC[C@@H](O)C4)nc32)cc1 [A201, (1R,3R)-3-[3-(4-methoxy-phenyl)-3H-[1,2,3]triazolo[4,5-d]pyrimidin-5-ylamino]-cyclohexanol]",< 1000,
"O[C@@H]1CC[C@@H](Nc2ncc3nnn(-c4ccc(-c5cnn(Cc6cccnc6)c5)cc4)c3n2)C1 [A231, (1R,3R)-3-{3-[4-(1-pyridin-3-ylmethyl-1H-pyrazol-4-yl)-phenyl]-3H-[1,2,3]triazolo[4,5-d]pyrimidin-5-ylamino}-cyclopentanol]",< 1000,
"NC(=O)[C@@H]1CC[C@@H](Nc2ncc3nnn(-c4ccc(-c5cnn(CCO)c5)cn4)c3n2)C1 [A261, (1R,3R)-3-(3-{5-[1-(2-hydroxy-ethyl)-1H-pyrazol-4-yl]-pyridin-2-yl}-3H-[1,2,3]triazolo[4,5-d]pyrimidin-5-ylamino)-cyclopentanecarboxylic acid amide]",< 1000,
"COc1ccc(-n2nnc3cnc(N[C@@H]4CC[C@H](c5ncc(C)o5)C4)nc32)cc1 [A267, [3-(4-methoxy-phenyl)-3H-[1,2,3]triazolo[4,5-d]pyrimidin-5-yl]-[(1R,3S)-3-(5-methyl-oxazol-2-yl)-cyclopentyl]-amine]",< 1000,
"COc1ccc(-n2nnc3cnc(N[C@@H]4CCN(S(C)(=O)=O)C4)nc32)cc1 [A269a, ((R)-1-Methanesulfonyl-pyrrolidin-3-yl)-[3-(4-methoxy-phenyl)-3H-[1,2,3]triazolo[4,5-d]pyrimidin-5-yl]-amine]",< 1000,
"Cc1ccc2cc(-n3nnc4cnc(N[C@@H]5CCN(C(N)=O)C5)nc43)ccc2n1 [A284, (R)-3-[3-(2-methyl-quinolin-6-yl)-3H-[1,2,3]triazolo[4,5-d]pyrimidin-5-ylamino]-pyrrolidine-1-carboxylic acid amide]",< 1000,
"COc1ccc(-n2nnc3cnc(N[C@@H]4CC[C@@H](N5CCCC5=O)C4)nc32)cc1 [A291, 1-{(1R,3R)-3-[3-(4-methoxy-phenyl)-3H-[1,2,3]triazolo[4,5-d]pyrimidin-5-ylamino]-cyclopentyl}-pyrrolidin-2-one]",< 1000,
"Cn1cc(CNc2ncc3nnn(-c4ccc(Cl)c(F)c4)c3n2)cn1 [B4, [3-(4-chloro-3-fluoro-phenyl)-3H-[1,2,3]triazolo[4,5-d]pyrimidin-5-yl]-(1-methyl-1H-pyrazol-4-ylmethyl)-amine]",1000 to 5000,
"COCCOc1ccc(-n2nnc3cnc(NCc4cnn(C)c4)nc32)cc1 [B6, {3-[4-(2-methoxy-ethoxy)-phenyl]-3H-[1,2,3]triazolo[4,5-d]pyrimidin-5-yl}-(1-methyl-1H-pyrazol-4-ylmethyl)-amine]",1000 to 5000,
"CCOc1ccc(-n2nnc3cnc(NCCc4cnn(C)c4)nc32)cc1 [B7, [3-(4-ethoxy-phenyl)-3H-[1,2,3]triazolo[4,5-d]pyrimidin-5-yl]-[2-(1-methyl-1H-pyrazol-4-yl)-ethyl]-amine]",< 1000,
"CCOc1ccc(-n2nnc3cnc(NCCc4cn[nH]c4)nc32)cc1 [B9, [3-(4-ethoxy-phenyl)-3H-[1,2,3]triazolo[4,5-d]pyrimidin-5-yl]-[2-(1H-pyrazol-4-yl)-ethyl]-amine]",< 1000,
"COc1ccc(-n2nnc3cnc(NCCc4ccccc4)nc32)cc1 [B10, [3-(4-methoxy-phenyl)-3H-[1,2,3]triazolo[4,5-d]pyrimidin-5-yl]-phenethyl-amine]",1000 to 5000,
